Starred links: 1 amine or outer side, 2 acyl side, 3 side chain; linkers in the order of their positions; H or OH if unused. Positions of bridges follow the written chain, without caps; N, C: chain ends. Non-standard residues stand in square brackets, D forms with d. Residues, ends and D or L forms follow the SMILES beside them. Phe(3,4-(OMe)2) = COc1ccc(C[C@H](N)C(=O)O)cc1OC; Hyp = O=C(O)[C@@H]1C[C@@H](O)CN1; Cit = NC(=O)NCCC[C@H](N)C(=O)O; d(hCys) = N[C@H](CCS)C(=O)O; Aze = O=C(O)[C@@H]1CCN1; X1 = C(CN[*:2])CS[*:1]; Aib = CC(C)(N)C(=O)O; CH2 = C([*:1])[*:2]; βAla = NCCC(=O)O

Test [1] addresses T1, human MC4R (Homo sapiens, UniProt P32245).
T1 construct: expressed in transfected cells
The test can be described thus: 125NDP-α-MSH competitive binding to membranes of BHK cells expressing human MC4 receptor (filtration assay). To be noted: human MC4R, BHK cell membranes, 125NDP-α-MSH radioligand; read-out: MC4R binding Ki. The protocol:
In Vitro ^125NDP-α-MSH Binding to Recombinant BHK Cells Expressing Human MC4 Receptor (Filtration Assay)
In order to assess the binding affinity of the selected compounds for the human MC4R competitive binding assays was performed with radiolabeled NDP-alpha MSH (^125NDP-α-MSH).
The assay was performed in 96-well filterplates (Unifilter) using BHK cells stably expressing the human MC4 receptor.
The BHK cell membranes were prepared from frozen or fresh cells that were homogenized in 20 mM HEPES pH 7.1, 5 mM MgCl2, 1 mg/ml bacitracin (buffer 1) and centrifuged at 15000 rpm at 4° C., 10 min in a Sorvall RC 5B plus, SS-34 rotor. The supernatant was discarded, and the pellets were re-suspended in buffer 1, homogenized and centrifuged two more times. The final pellets were re-suspended in buffer 1 and the protein concentration was measured and adjusted with buffer 1 to 5 mg/ml and the membrane preparation was kept at −80° C. until assay. The assay was run on a dilution of this cell membrane suspension without any further preparation. The suspension was diluted to give maximally 10% specific binding, i.e. to approx. 50-100 fold dilution, optimized after each membrane preparation. The assay was performed in a total volume of 200 μl: 50 μl of cell suspension, 50 μl of ^125NDP-α-MSH (apx. […] in final concentration), 50 μl of test compound and 50 μl binding buffer were mixed and incubated for 2 h at 25° C. (binding buffer: 25 mM HEPES, pH 7.0, 1 mM CaCl2), 1 mM MgSO4, 1 mM EGTA, 0.005% Tween™ 20 and 0.1% HSA or, alternatively, 0.1% ovalbumin (Sigma; catalogue No. A-5503)). Test compounds were dissolved in 100% DMSO and diluted in binding buffer in a dose range from 1 μM to 0.001 nM. Radiolabelled ligand and membranes were diluted in binding buffer. The incubation was stopped by dilution with 8×100 μl ice-cold 0.9% NaCl. The radioactivity retained on the filters was counted using a Packard Topcounter. The data were analysed by non-linear regression analysis of binding curves, using the Windows™ program GraphPad™ Prism (GraphPad Software, USA).

The target in test [2] is T1, human MC4R. The experiment in a line: Functional cAMP assay (CisBio HTRF) in BHK cells expressing human MC4R. The class given is cell-based. The settings on record: for EC50: BHK cells expressing human MC4R, '>' = highest dose used with no response, read-out: MC4R cAMP EC50; for MC1R/MC4R cAMP EC50 ratio: MC1R cAMP EC50 divided by MC4R cAMP EC50. An outline of the steps: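 Stably transfected BHK cells expressing human MC1R or MC4R; cAMP quantified by HTRF (cAMP-d2/cryptate) after 30 min compound stimulation at 25 °C in DMEM-based buffer with 1 mM IBMX. Compounds were prepared as 10-fold serial dilutions starting at 2 μM (working solution, 2× final). Readout after 1 h at 25 °C; non-linear regression.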

T1 sequence (P32245 whole entry): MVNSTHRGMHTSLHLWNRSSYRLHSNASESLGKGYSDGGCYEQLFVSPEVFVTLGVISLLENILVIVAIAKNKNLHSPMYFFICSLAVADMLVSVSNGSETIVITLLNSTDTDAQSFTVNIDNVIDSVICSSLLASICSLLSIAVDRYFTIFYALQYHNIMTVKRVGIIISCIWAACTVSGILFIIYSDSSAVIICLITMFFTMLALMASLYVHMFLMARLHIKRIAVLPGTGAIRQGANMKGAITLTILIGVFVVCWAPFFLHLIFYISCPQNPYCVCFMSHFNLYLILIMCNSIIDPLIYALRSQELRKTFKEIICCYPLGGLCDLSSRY

Regarding `C[C@@H]1NC(=O)[C@@H]2CSSC[C@H](NC(=O)[C@H](Cc3c[nH]c4ccccc34)NC(=O)[C@H](CCCCN)NC(=O)[C@H](CCCCN)NC(=O)[C@H](CCCCN)NC1=O)C(=O)N[C@@H](CCCCN)C(=O)N[C@@H](Cc1c[nH]cn1)C(=O)N[C@H](Cc1ccccc1)C(=O)N[C@@H](Cc1c[nH]cn1)C(=O)N[C@@H](Cc1c[nH]c3ccccc13)C(=O)N2` [Chem. 76, c[c[Cys-Lys-His-D-Phe-His-Trp-Cys]- Ala-Lys-Lys-Lys-Trp]] (cyclo(AKKKWCKH[dF]HWC); disulfide 6-12), the Ki on human MC4R [1] is 0.09 nM. At human MC4R [2], the EC50 amounted to 0.16 nM and the “MC1R/MC4R cAMP EC50 ratio” value amounted to 136.

With `C[C@@H]1NC(=O)[C@@H]2CSSC[C@H](NC(=O)[C@H](Cc3c[nH]c4ccccc34)NC(=O)[C@H](CCCCN)NC(=O)[C@H](CCCCN)NC(=O)[C@H](CCCCN)NC1=O)C(=O)N1CC[C@H]1C(=O)N[C@@H](Cc1c[nH]cn1)C(=O)N[C@H](Cc1ccccc1)C(=O)N[C@@H](Cc1c[nH]cn1)C(=O)N[C@@H](Cc1c[nH]c3ccccc13)C(=O)N2` [Chem. 82, c[c[Cys-AZE-His-D-Phe-His-Trp-Cys]- Ala-Lys-Lys-Lys-Trp]] (cyclo(AKKKWC[Aze]H[dF]HWC); disulfide 6-12), the Ki on human MC4R [1] came to 0.07 nM. The “MC1R/MC4R cAMP EC50 ratio” value at human MC4R [2] is 178.

Turning to `CC1(C)NC(=O)[C@@H]2CSSC[C@H](NC(=O)[C@H](Cc3c[nH]c4ccccc34)NC(=O)[C@H](CCCCN)NC(=O)[C@@H](Cc3ccccc3)NC(=O)[C@H](Cc3c[nH]cn3)NC1=O)C(=O)NC(C)(C)C(=O)N[C@@H](Cc1c[nH]cn1)C(=O)N[C@H](Cc1ccccc1)C(=O)N[C@@H](CCCCN)C(=O)N[C@@H](Cc1c[nH]c3ccccc13)C(=O)N2` [Chem. 40, c[c[Cys-Aib-His-D-Phe-Lys-Trp-Cys]- Aib-His-D-Phe-Lys-Trp]] (cyclo([Aib]H[dF]KWC[Aib]H[dF]KWC); disulfide 6-12), at human MC4R [1], the Ki came to 0.31 nM. Besides, on human MC4R [2], the EC50 was determined as 0.29 nM and the “MC1R/MC4R cAMP EC50 ratio” value came out at 38.

In the case of `N=C(N)NCCC[C@@H]1NC(=O)[C@@H](Cc2ccccc2)NC(=O)[C@@H]2C[C@@H](O)CN2C(=O)[C@@H]2CSCSC[C@H](NC(=O)[C@H](Cc3c[nH]c4ccccc34)NC1=O)C(=O)N1C[C@H](O)C[C@H]1C(=O)N[C@H](Cc1ccccc1)C(=O)N[C@@H](CCCNC(=N)N)C(=O)N[C@@H](Cc1c[nH]c3ccccc13)C(=O)N2` [Chem. 26, c[c[Cys-Hyp-D-Phe-Arg-Trp-Cys]- Hyp-D-Phe-Arg-Trp]] (cyclo(C[Hyp][dF]RWC[Hyp][dF]RW); linker 1-6 via CH2), the Ki at human MC4R [1] is 0.44 nM. For the same molecule, at human MC4R [2], the “MC1R/MC4R cAMP EC50 ratio” value came out at 96.

Consider `CC(=O)N[C@@H](C)C(=O)N[C@@H](Cc1c[nH]cn1)C(=O)N[C@H](Cc1ccccc1)C(=O)N[C@@H](CCCNC(=N)N)C(=O)N[C@@H](Cc1c[nH]c2ccccc12)C(=O)N[C@@H]1CCSSCCCNC(=O)[C@H](Cc2c[nH]c3ccccc23)NC(=O)[C@H](CCCNC(=N)N)NC(=O)[C@@H](Cc2ccccc2)NC(=O)[C@H](Cc2c[nH]cn2)NC(=O)[C@H](C)NC1=O` [Chem. 3, c[c[HCys-Ala-His-D-Phe-Arg-Trp- HCys]-Ala-His-D-Phe-Arg-Trp]] (Ac-AH[dF]RW[d(hCys)]AH[dF]RW; linker 6-C via X1), for which, on human MC4R [1], the Ki was determined as 0.42 nM. Also, on human MC4R [2], the concentration for a half-maximal effect (EC50) amounted to 0.26 nM and the “MC1R/MC4R cAMP EC50 ratio” value came out at 28.

Take `C[C@@H]1NC(=O)[C@H](C)NC(=O)[C@H](Cc2c[nH]c3ccccc23)NC(=O)[C@H](CCCNC(=N)N)NC(=O)[C@@H](Cc2ccccc2)NC(=O)[C@H](Cc2c[nH]cn2)NC(=O)[C@H](C)NC(=O)[C@H](C)NC(=O)[C@H](Cc2c[nH]c3ccccc23)NC(=O)[C@H](CCCNC(=N)N)NC(=O)[C@@H](Cc2ccccc2)NC(=O)[C@H](Cc2c[nH]cn2)NC1=O` [Chem. 7, c[Ala-Ala-His-D-Phe-Arg-Trp-Ala-Ala- His-D-Phe-Arg-Trp]] (cyclo(AAH[dF]RWAAH[dF]RW)): the inhibition constant (Ki) at human MC4R [1] is 0.47 nM. For the same molecule, on human MC4R [2], the EC50 was 0.06 nM and the “MC1R/MC4R cAMP EC50 ratio” value is on record as 76.

Take `N=C(N)NCCC[C@@H]1NC(=O)[C@@H](Cc2ccccc2)NC(=O)[C@H](Cc2c[nH]cn2)NC(=O)CCNC(=O)[C@@H]2CSSC[C@H](NC(=O)[C@H](Cc3c[nH]c4ccccc34)NC1=O)C(=O)NCCC(=O)N[C@@H](Cc1c[nH]cn1)C(=O)N[C@H](Cc1ccccc1)C(=O)N[C@@H](CCCNC(=N)N)C(=O)N[C@@H](Cc1c[nH]c3ccccc13)C(=O)N2` [Chem. 25, c[c[Cys-βAla-His-D-Phe-Arg-Trp- Cys]-βAla-His-D-Phe-Arg-Trp]] (cyclo(C[βAla]H[dF]RWC[βAla]H[dF]RW); disulfide 1-7): the Ki on human MC4R [1] came to 0.04 nM. For the same molecule, on human MC4R [2], the 50% effective concentration (EC50) is 0.02 nM and the “MC1R/MC4R cAMP EC50 ratio” value was determined as 17.

For the molecule `NCCCC[C@H]1NC(=O)[C@@H]2CSSC[C@H](NC(=O)[C@H](Cc3c[nH]c4ccccc34)NC(=O)[C@H](Cc3c[nH]cn3)NC(=O)[C@@H](Cc3ccccc3)NC(=O)[C@H](Cc3c[nH]cn3)NC1=O)C(=O)N[C@H](CCCCN)C(=O)N[C@@H](Cc1c[nH]cn1)C(=O)N[C@H](Cc1ccccc1)C(=O)N[C@@H](Cc1c[nH]cn1)C(=O)N[C@@H](Cc1c[nH]c3ccccc13)C(=O)N2` [Chem. 86, c[c[Cys-D-Lys-His-D-Phe-His-Trp- Cys]-D-Lys-His-D-Phe-His-Trp]] (cyclo(C[dK]H[dF]HWC[dK]H[dF]HW); disulfide 1-7), the inhibitory constant (Ki) on human MC4R [1] stood at 9.6 nM. In addition, at human MC4R [2], the EC50 came to 14.5 nM and the “MC1R/MC4R cAMP EC50 ratio” value was 10.

For the molecule `C[C@@H]1NC(=O)[C@@H]2CSSC[C@H](NC(=O)[C@H](CCCNC(=N)N)NC(=O)[C@H](CCCCN)NC(=O)[C@H](CCCCN)NC(=O)[C@H](CCCCN)NC1=O)C(=O)N1C[C@H](O)C[C@H]1C(=O)N[C@@H](Cc1c[nH]cn1)C(=O)N[C@H](Cc1ccccc1)C(=O)N[C@@H](Cc1c[nH]cn1)C(=O)N[C@@H](Cc1c[nH]c3ccccc13)C(=O)N2` [Chem. 97, c[c[Cys-Hyp-His-D-Phe-His-Trp-Cys]- Ala-Lys-Lys-Lys-Arg]] (cyclo(AKKKRC[Hyp]H[dF]HWC); disulfide 6-12), on human MC4R [1], the inhibition constant (Ki) was 0.05 nM. Besides, at human MC4R [2], the EC50 stood at 0.19 nM and the “MC1R/MC4R cAMP EC50 ratio” value is reported as 122.

On to `COc1ccc(C[C@@H]2NC(=O)[C@H](CCCNC(=N)N)NC(=O)[C@@H](Cc3ccccc3)NC(=O)[C@H](Cc3c[nH]cn3)NC(=O)[C@@H]3CCCN3C(=O)[C@@H]3CSSC[C@H](NC2=O)C(=O)N[C@@H](C)C(=O)N[C@@H](CCCCN)C(=O)N[C@@H](CCCCN)C(=O)N[C@@H](CCCCN)C(=O)N[C@@H](CCCNC(=N)N)C(=O)N3)cc1OC` [Chem. 94, c[c[Cys-Pro-His-D-Phe-Arg-3,4- DiMeO-Phe-Cys]-Ala-Lys-Lys-Lys- Arg]] (cyclo(AKKKRCPH[dF]R[Phe(3,4-(OMe)2)]C); disulfide 6-12), for which the Ki on human MC4R [1] was 0.25 nM. Moreover, the “MC1R/MC4R cAMP EC50 ratio” value on human MC4R [2] was 26.

With `C[C@@H]1NC(=O)[C@@H]2CSSC[C@H](NC(=O)[C@H](Cc3c[nH]c4ccccc34)NC(=O)[C@H](CCCCN)NC(=O)[C@@H](Cc3ccccc3)NC(=O)[C@H](Cc3c[nH]cn3)NC1=O)C(=O)N[C@@H](C)C(=O)N[C@@H](Cc1c[nH]cn1)C(=O)N[C@H](Cc1ccccc1)C(=O)N[C@@H](CCCCN)C(=O)N[C@@H](Cc1c[nH]c3ccccc13)C(=O)N2` [Chem. 15, c[c[Cys-Ala-His-D-Phe-Lys-Trp-Cys]- Ala-His-D-Phe-Lys-Trp]] (cyclo(AH[dF]KWCAH[dF]KWC); disulfide 6-12), the Ki at human MC4R [1] turned out to be 0.12 nM. For the same molecule, on human MC4R [2], the EC50 was determined as 0.09 nM and the “MC1R/MC4R cAMP EC50 ratio” value is on record as 60.

On to `C[C@@H]1NC(=O)[C@@H]2CSSC[C@H](NC(=O)[C@H](Cc3c[nH]c4ccccc34)NC(=O)[C@H](CCCNC(N)=O)NC(=O)[C@@H](Cc3ccccc3)NC(=O)[C@H](Cc3c[nH]cn3)NC1=O)C(=O)N[C@@H](C)C(=O)N[C@@H](CCCCN)C(=O)N[C@@H](CCCCN)C(=O)N[C@@H](CCCCN)C(=O)N[C@@H](Cc1c[nH]c3ccccc13)C(=O)N2` [Chem. 48, c[c[Cys-Ala-His-D-Phe-Cit-Trp-Cys]- Ala-Lys-Lys-Lys-Trp]] (cyclo(AH[dF][Cit]WCAKKKWC); disulfide 6-12), for which the Ki at human MC4R [1] turned out to be 0.15 nM. Moreover, on human MC4R [2], the EC50 came out at 0.06 nM and the “MC1R/MC4R cAMP EC50 ratio” value was found to be 152.

The record behind these values is US20200223889A1, “Bicyclic Compounds Capable of Binding to Melanocortin 4 Receptor” (Novo Nordisk A/S, priority 2017, published 2020).
